Laboratory results as given in ChEMBL document CHEMBL1142028, “(E)-Phenyl- and -heteroaryl-substituted O-benzoyl-(or acyl)oximes as lipoprotein-associated phospholipase A2 inhibitors” (Bioorg Med Chem Lett, 2005).

Molecular target: T1, Platelet-activating factor acetylhydrolase (Homo sapiens, UniProt Q13093)
T1 sequence (Q13093 whole entry): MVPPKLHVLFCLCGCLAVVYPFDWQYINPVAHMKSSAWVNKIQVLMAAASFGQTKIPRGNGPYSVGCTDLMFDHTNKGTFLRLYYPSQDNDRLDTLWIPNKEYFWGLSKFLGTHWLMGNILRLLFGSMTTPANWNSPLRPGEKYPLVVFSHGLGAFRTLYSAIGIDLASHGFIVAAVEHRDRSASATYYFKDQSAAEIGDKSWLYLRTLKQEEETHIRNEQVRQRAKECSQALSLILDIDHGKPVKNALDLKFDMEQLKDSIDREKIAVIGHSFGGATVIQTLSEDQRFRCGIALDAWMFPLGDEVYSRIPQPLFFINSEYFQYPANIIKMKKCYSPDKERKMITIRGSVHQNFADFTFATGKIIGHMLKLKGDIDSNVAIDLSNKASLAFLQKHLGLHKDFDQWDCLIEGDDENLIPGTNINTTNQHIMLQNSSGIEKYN
Test: In vitro inhibitory activity against human lipoprotein-associated phospholipase A2; NA - not active; call rule not given here

IC50: Not Active
SMILES: O=C(ON=C(c1ccccc1)c1ccccc1)c1ccccc1 [(DIPHENYLMETHYLIDENE)AMINO BENZOATE]
